Measurements from US7183277B2, “Carboxylic acid amides” (Merck Patent GmbH, priority 2002, dated 2007).
Structures can show the parent of a compound that is named as a salt.

Key:
FXa = FXa (Homo sapiens, UniProt P00742); experiment: Factor Xa inhibition (FXa-IC50); assay type: biochemical
Source text: The inhibition of factor Xa by the compounds according to the invention and the measurement of the anticoagulant and antithrombotic activity can be determined by conventional in-vitro or in-vivo methods. A suitable method is described, for example, by J. Hauptmann et al. in Thrombosis and Haemostasis 1990, 63, 220–223.
The inhibition of factor Xa can be measured, for example, by the method of T. Hara et al. in Thromb. Haemostas. 1994, 71, 314–319.

TF/FVIIa = TF/FVIIa (Homo sapiens, UniProt P08709); experiment: TF/FVIIa inhibition (TF/FVIIa-IC50); assay type: biochemical
Source text: The inhibition of factor VIIa by the compounds according to the invention and the measurement of the anticoagulant and antithrombotic activity can be determined by conventional in-vitro or in-vivo methods. A conventional method for the measurement of the inhibition of factor VIIa is described, for example, by H. F. Ronning et al. in Thrombosis Research 1996, 84, 73–81.

Chain of FXa (P00742 235-488 limits assumed): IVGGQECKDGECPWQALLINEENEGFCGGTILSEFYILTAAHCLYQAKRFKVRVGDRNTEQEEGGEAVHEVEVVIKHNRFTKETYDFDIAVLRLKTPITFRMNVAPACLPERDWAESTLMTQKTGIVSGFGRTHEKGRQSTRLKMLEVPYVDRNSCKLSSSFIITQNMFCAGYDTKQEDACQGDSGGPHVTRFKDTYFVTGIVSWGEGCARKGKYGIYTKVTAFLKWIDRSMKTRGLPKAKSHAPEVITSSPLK
Chain of FXa (P00742 41-179 partner limits assumed): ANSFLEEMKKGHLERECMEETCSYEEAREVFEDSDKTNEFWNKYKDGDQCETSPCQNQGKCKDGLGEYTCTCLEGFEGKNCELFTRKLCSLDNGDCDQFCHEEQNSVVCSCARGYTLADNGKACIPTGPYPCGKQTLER
Chain of TF/FVIIa (P08709 213-466 limits assumed): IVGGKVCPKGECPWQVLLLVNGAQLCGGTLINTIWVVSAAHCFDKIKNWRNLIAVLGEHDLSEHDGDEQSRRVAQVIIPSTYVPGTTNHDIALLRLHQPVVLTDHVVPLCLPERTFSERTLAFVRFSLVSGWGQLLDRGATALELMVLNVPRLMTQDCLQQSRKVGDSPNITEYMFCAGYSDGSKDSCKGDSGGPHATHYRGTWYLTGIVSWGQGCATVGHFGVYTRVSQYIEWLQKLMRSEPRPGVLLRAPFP
Chain of TF/FVIIa (P08709 61-212 partner limits assumed): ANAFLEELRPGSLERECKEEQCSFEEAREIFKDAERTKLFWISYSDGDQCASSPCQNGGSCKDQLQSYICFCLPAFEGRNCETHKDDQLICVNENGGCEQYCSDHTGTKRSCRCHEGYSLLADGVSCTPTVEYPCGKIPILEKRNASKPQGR
Chain of TF/FVIIa (P13726 33-295 partner): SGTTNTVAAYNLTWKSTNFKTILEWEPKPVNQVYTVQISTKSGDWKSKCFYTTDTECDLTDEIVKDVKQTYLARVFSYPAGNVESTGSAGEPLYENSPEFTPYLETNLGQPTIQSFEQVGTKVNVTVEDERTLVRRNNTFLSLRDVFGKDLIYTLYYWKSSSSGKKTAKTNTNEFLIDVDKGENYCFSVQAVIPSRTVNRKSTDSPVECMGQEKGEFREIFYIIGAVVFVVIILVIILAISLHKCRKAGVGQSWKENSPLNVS

## CON=C1CCCCN1c1ccc(NC(=O)[C@H](OC(=O)Nc2ccc(Cl)cc2)c2ccccc2)cc1 [AA, (R)-2-[N-(4-chlorophenyl)carbamoyloxy]-N-[4-(2-methoxyiminopiperidin-1-yl)phenyl]-2-phenylacetamide]
FXa
  IC50: 220 nM
TF/FVIIa
  IC50: 290 nM

## N=C1CCCCN1c1ccc(NC(=O)[C@H](OC(=O)Nc2ccc(Cl)cc2)c2ccccc2)cc1 [AB, (R)-2-[N-(4-chlorophenyl)carbamoyloxy]-N-[4-(2-iminopiperidin-1-yl)phenyl]-2-phenylacetamid, hydrochloride]
FXa
  IC50: 58 nM
TF/FVIIa
  IC50: 99 nM

## Cc1cc(NC(=O)[C@H](NC(=O)Nc2ccc(Cl)cc2)c2ccccc2)ccc1N1CCCC1=N [BA, (R)-2-[3-(4-chlorophenyl)ureido]-N-[4-(2-iminopyrrolidin-1-yl)-3-methylphenyl]-2-phenylacetamide, hydrochloride]
FXa
  IC50: 680 nM
TF/FVIIa
  IC50: 490 nM

## N#CN=C1NCCN1c1ccc(NC(=O)[C@@H](NC(=O)Nc2ccc(Cl)cc2)c2cccs2)cc1 [CA, (R)-2-[3-(4-chlorophenyl)ureido]-N-[4-(2-cyaniminoimidazolidin-1-yl)phenyl]-2-thiophen-2-ylacetamide]
FXa
  IC50: 54 nM
